Article PMC5799093, “Proceedings of Réanimation 2018, the French Intensive Care Society International Congress” (Annals of Intensive Care, 2018)

How the values were obtained:
[1] = comparison value; cited from earlier work
[2] = Acute amitriptylin and clomipramine poisonings in the ICU, clinical features and pharmacokinetics
[3] = test system: TREM-1 signalling pathway; settings: in vivo; cited from earlier work
Excerpt: Introduction: MOTREM is the clinically formulated synthetic peptide (LR12) that is currently being developed for the treatment of sepsis and for the prevention of sequelae after acute myocardial infarction. […] Its pharmacological action occurs via the Triggering Receptor Expressed on Myeloid Cells-1 (TREM-1) signalling pathway.

[4] = clinical; settings: male, human, in vivo, iv
Description: (§1) Patients and methods: Twenty-seven healthy male volunteers have been included in this clinical trial. The product was administered by continuous intravenous infusion (CIV). A single ascending dose design with 8 dose levels was used. […] All volunteers were carefully monitored. Before escalation to the next dose level, safety and PK data of the previous dose level were reviewed by a safety review committee.

[5] = MOTREM phase I first-in-human single ascending dose trial, safety and pharmacokinetics; settings: in vivo
Description: as §1

[6] = Major arrhythmia recurrence after resuscitated ischemic VF/VT, PROCAT registry (P-86); format: in vivo, human; settings: multivariate analysis, 256 patients, 104 treated; p = 0.870
Excerpt: Patients and methods: The PROCAT registry captures all data from patients admitted in a tertiary hospital center after a resuscitated cardiac arrest (CA). We selected patients with an initial VF VT caused by an acute coronary syndrome (ACS) and who were successfully treated with early percutaneous coronary intervention (PCI) on admission. The primary endpoint was the recurrence of major arrhythmia between ICU admission and ICU discharge. All arrhythmias resulting in CA recurrence and or severe arterial hypotension requiring infusion of vasopressors were classified as major arrhythmias. Multivariate logistic regression identified factors associated with the occurrence of major arrhythmias.

[7] = Caffeine in bronchiolitis related apnea, PICU retrospective study (P-118); settings: 49 treated of 54 infants; loading 20 mg kg, 5 mg kg day maintenance
[8] = 2 g day intermittent infusion, trough concentrations, theoretical target MIC 2 mg/L, 21 patients, 63 samples
[9] = test system: eclampsia; assay: Eclampsia survey, recurrence under magnesium sulfate prevention; format: in vivo, patients; settings: 83 women
Excerpt: Patients and methods: We conducted a retrospective survey in a third level Tunisian university teaching hospital from January 2004 to December 2016. We included all patients with the diagnosis of eclampsia.

[10] = test system: GABA-A receptors; assay: PET imaging with 11C-flumazenil, interaction of tramadol with GABA-A receptors; format: binding; settings: 11C-flumazenil fixation in the rat brain
[11] = CVVHF filter lifespan, LMWH versus regional citrate anticoagulation (P-97); set-up: species or system human; settings: in vivo
Excerpt: Patients and methods: A monocentric retrospective study was led from January to October 2016. All the CVVHF sessions during this period were included. Prismaflex© monitors (Hospal) were used. Practioners were free to choose between citrate or LMWH defining 2 groups. We aimed a post filter ionized calcemia between 0.25 to 0.5 mmol/L in citrate group + and a post filter anti Xa activity between 0.2 to 0.5 UI/mL in LMWH.

[12] = test system: anti-Xa activity; assay: Population pharmacokinetics of enoxaparin (anti-Xa activity) in pediatric liver transplantation (P-170); format: in vivo, human (children)
Description: Patients and methods: Clinical, biological and kinetic data were retrospectively collected in a single Pediatric Intensive Care Unit center from January 2013 to July 2015. We described an enoxaparin PK model in 22 children the first week following the LT. Anti-Xa activity time-courses were analyzed using a non linear mixed effects approach with Monolix version 2016R.

[13] = Heparin-induced thrombocytopenia in ICU (anti-PF4 antibody test); format: in vivo; settings: patients hospitalized in ICU
Description: Patients and methods: This was a retrospective, monocentric, descriptive and evaluative study conducted in our intensive care unit (ICU) over a period of 4 years 6 months. An anti-PF4 antibody test was performed in patients who developed thrombocytopenia or a 30% drop in their initial platelet kinetics and the clinical picture.

For `CN(C)CCC=C1c2ccccc2CCc2ccccc21` [AMI, Amitriptylin], the “elimination half-life in pharmacological conditions” value [1] is listed as 24 h, the plasma concentration ([2]; median, AMI [0.4 + 1.4], dose 1.5 g, CLO [0.5 + 1.4], dose 3.0 g) is listed as 700 ng/mL and the “elimination half-life in overdose” value ([2]; non-compartmental analysis) is listed as 43 h. For the same compound, the “coma depth, AMI vs CLO” value ([2]; p < 0.0001) was “significantly deeper coma” and the “seizures, AMI vs CLO” value ([2]; p = 0.02) was “fewer seizures than CLO”.
With `CSCC[C@H](NC(=O)[C@H](CS)NC(=O)CNC(=O)[C@H](Cc1ccc(O)cc1)NC(=O)[C@H](CCC(=O)O)NC(=O)CNC(=O)[C@H](C)NC(=O)[C@H](CC(=O)O)NC(=O)[C@H](CCC(=O)O)NC(=O)[C@H](CCC(=O)O)NC(=O)[C@H](CCC(N)=O)NC(=O)[C@@H](N)CC(C)C)C(N)=O` [MOTREM] the product-related adverse events (27 healthy male volunteers) was “No product-related adverse events were reported”, the effective half-life (continuous IV infusion, healthy male volunteers) was “about 3 min” and the safety and tolerability (up to 5mg/kg 15-min loading dose and 6 mg kg h for 7.75 hours) was “safe and well tolerated up to the highest dose tested”. The GLP toxicology [3] was “safe and well tolerated in GLP toxicology studies”, the clearance [4] was 110 mL/min/kg and the PK linearity [5] was “linear”.
In the case of `CCCCc1oc2ccccc2c1C(=O)c1cc(I)c(OCCN(CC)CC)c(I)c1` [amiodarone], the “OR for recurrences of major arrhythmias with prophylactic AA treatment” value [6] is reported as 0.9 [0.3–3.1].
In the case of `Cn1c(=O)c2c(ncn2C)n(C)c1=O` [caffeine], the “potential caffeine adverse effects between groups or pre and post-caffeine administration” value [7] is reported as “no difference”.
In the case of `CO/N=C(\C(=O)N[C@@H]1C(=O)N2C(C(=O)O)=C(CSc3nc(=O)c(=O)[nH]n3C)CS[C@H]12)c1csc(N)n1` [ceftriaxone], the “rate of PK/PD target non-attainment” value [8] is reported as 62%.
In the case of `O=S(=O)([O-])[O-].[Mg+2]` [magnesium sulfate], the “recurrence of eclampsia despite prevention” value [9] is reported as 6%.
With `COc1cccc(C2(O)CCCCC2CN(C)C)c1` (stereo not drawn) [tramadol] the “interaction with GABA-A receptors” value [10] was “molecular interaction between tramadol and γ-aminobutyric acid (GABA)-A receptors not related to a competitive mechanism”.
With enoxaparin the “serious side effect, especially hemorrhage” value [11] was “No serious side effect”, the “typical clearance (CLTYP)” value ([12]; 22 children, first week after LT, one-compartment, scaled to 70 kg, Monolix) was 1.26 L/h and the “typical volume of distribution (VTYP)” value ([12]; 22 children, scaled to 70 kg) was 16.9 L. For the same compound, the “children who never attained the target range of anti-Xa activity 0.2 to 0.4 IU mL” value ([12]; standard 50 IU kg 12 h, 7 children) was 32%.
With heparin the “incidence of HIT” value [13] was 1.71%.
